Patent publication US20200246323A1, “Antibody Drug Conjugates with Cell Permeable BCL-XL Inhibitors” (AbbVie Inc., priority 2014, published 2020)
Like-named read-outs stand apart in the source and are kept apart here. Marks after values point to notes of the source that are not given here. One block for each molecule: values may come before it.

Assays:
[1] = tested on: NCI-H146 xenografts; experiment: Inhibition of H146 xenograft tumor growth; type: in vivo, mouse; conditions: Table 14; 50 mg/kg/day PO QDx21
[2] = tested on: NCI-H1963.FP5 xenografts; experiment: Inhibition of H1963.FP5 xenograft tumor growth; type: in vivo, mouse; conditions: Table 15; 50 mg/kg/day PO QDx21
[3] = tested on: circulating platelets; conditions: SCID/bg, mouse, in vivo, po, 100 mg/kg
[4] = tested on: NCI-H1650 xenografts; experiment: Inhibition of H1650 xenograft tumor growth; type: in vivo, mouse; conditions: Table 9
[5] = tested on: EBC-1 xenografts; experiment: Inhibition of EBC-1 xenograft tumor growth; type: in vivo, mouse; conditions: Table 13, 7.5 mg/kg/day IV QDx1
[6] = tested on: Molt-4 human acute lymphoblastic leukemia cells; experiment: Molt-4 cell viability assay (CellTiter-Glo, 48 hours); type: cell-based; conditions: 10% human serum, read-out: Molt-4 Viability EC50 (nM, 10% HS)
From the text: The ability of exemplary Bcl-xL inhibitors can be determined in cell-based killing assays using a variety of cell lines and mouse tumor models. For example, their activity on cell viability can be assessed on a panel of cultured tumorigenic and non-tumorigenic cell lines, as well as primary mouse or human cell populations. Bcl-xL inhibitory activity of exemplary Bcl-xL inhibitors was confirmed in a cell viability assay with Molt-4 cells.
In one exemplary set of conditions, Molt-4 (ATCC, Manassas, Va.) human acute lymphoblastic leukemia cells were plated 12,500 cells per well in 384-well tissue culture plates (Corning, Corning, N.Y.) in a total volume of 25 μL tissue culture medium supplemented with 10% human serum (Sigma-Aldrich, St. Louis, Mo.) and treated with a 3-fold serial dilution of the compounds of interest from 10 μM to 0.0005 μM. Each concentration was tested in duplicate at least 3 separate times. The number of viable cells following 48 hours of compound treatment was determined using the CellTiter-Glo Luminescent Cell Viability Assay according to the manufacturer's recommendations (Promega Corp., Madison, Wis.). Compounds were tested in the presence of 10% HS.

[7] = tested on: circulating platelets; experiment: Number of circulating platelets in mice after a single dose; conditions: for Lowest thrombocyte count / Time to lowest count: SCID/bg mice
[8] = molecular target: GST-Bcl-xL (Homo sapiens, UniProt Q07817); experiment: TR-FRET Bcl-xL binding assay (competition with probe F-Bak)
Protocol: Tb-anti-GST antibody was purchased from Invitrogen (Catalog No. PV4216).
For the assay, test compounds were serially diluted in DMSO starting at 50 μM (2× starting concentration; 10% DMSO) and 10 μL transferred into a 384-well plate. 10 μL of a protein/probe/antibody mix was then added to each well at final concentrations listed below:
The samples were then mixed on a shaker for 1 minute and incubated for an additional 2 hours at room temperature. For each assay plate, a probe/antibody and protein/antibody/probe mixture were included as a negative and a positive control, respectively. Fluorescence was measured on the Envision (Perkin Elmer) using a 340/35 nm excitation filter and 520/525 (F-Bak) and 495/510 nm (Tb-labeled anti-his antibody) emission filters. Dissociation constants (Ki) were determined using Wang's equation (Wang, 1995, FEBS Lett. 360:111-114). The TR-FRET assay can be performed in the presence of varying concentrations of human serum (HS) or fetal bovine serum (FBS). Compounds were tested both without HS and in the presence of 1% HS.

[9] = single dose 0.61 mg/kg, intravenous
[10] = in the presence of 1% human serum, read-out: Bcl-xL Binding Ki (nM, 1% HS)
[11] = without HS, read-out: Bcl-xL Binding Ki
[12] = 25 mg/kg/day PO QDx14, 25 mg/kg/day

Chain of GST-Bcl-xL (Q07817 whole entry): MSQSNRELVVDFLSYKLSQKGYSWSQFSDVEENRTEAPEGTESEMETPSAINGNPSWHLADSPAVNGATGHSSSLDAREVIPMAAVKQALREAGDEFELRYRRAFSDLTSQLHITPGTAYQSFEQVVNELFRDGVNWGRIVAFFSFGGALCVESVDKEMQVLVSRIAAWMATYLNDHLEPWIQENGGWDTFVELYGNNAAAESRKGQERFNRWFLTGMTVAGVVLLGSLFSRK

SMILES: CC1(C)CCC(CN2CCN(c3ccc(C(=O)NS(=O)(=O)c4ccc(NCC5CCOCC5)c([N+](=O)[O-])c4)c(Oc4cnc5[nH]ccc5c4)c3)CC2)=C(c2ccc(Cl)cc2)C1 [ABT-199]
Growth Inhibition TGD (%) [1]: 48* %
Growth Inhibition TGImax (%) [1]: 75* %
Response Frequency CR (%) [1]: 0%
Response Frequency OR (%) [1]: 0%
Response Frequency PR (%) [1]: 0%
Growth Inhibition TGD (%) [2]: 22* %
Growth Inhibition TGImax (%) [2]: 50* %
Response Frequency CR (%) [2]: 0%
Response Frequency OR (%) [2]: 0%
Response Frequency PR (%) [2]: 0%

Time to lowest count [3]: 6 h
Lowest thrombocyte count ([3]; 6 h): 10 1/10^3 of the platelet#/mm^3
SMILES: CC1(C)CCC(c2ccc(Cl)cc2)=C(CN2CCN(c3ccc(C(=O)NS(=O)(=O)c4ccc(N[C@H](CCN5CCOCC5)CSc5ccccc5)c(S(=O)(=O)C(F)(F)F)c4)cc3)CC2)C1 [ABT-263, Navitoclax]

SMILES: CC(=O)O[C@@]12CO[C@@H]1C[C@H](O)[C@@]1(C)C(=O)[C@H](O)C3=C(C)[C@@H](OC(=O)[C@H](O)[C@@H](NC(=O)OC(C)(C)C)c4ccccc4)C[C@@](O)([C@@H](OC(=O)c4ccccc4)[C@H]21)C3(C)C [DTX, docetaxel]
Growth Inhibition TGD (%) ([4]; 7.5 mg/kg/day IV QDx1): 94* %
Growth Inhibition TGImax (%) ([4]; 7.5 mg/kg/day IV QDx1): 73* %
Response Frequency CR (%) ([4]; 7.5 mg/kg/day IV QDx1): 0%
Response Frequency OR (%) ([4]; 7.5 mg/kg/day IV QDx1): 0%
Response Frequency PR (%) ([4]; 7.5 mg/kg/day IV QDx1): 0%
Response Frequency CR (%) [5]: 0%
Response Frequency OR (%) [5]: 0%
Response Frequency PR (%) [5]: 0%
Growth Inhibition TGD (%) ([5]; 7.5 mg/kg/day): 44%
Growth Inhibition TGImax (%) ([5]; 7.5 mg/kg/day): 76%

EC50 [6]: 7.8 nM
Decrease of the platelet number from normal count ([7]; dose of 0.61 mg/kg): 100 fold
Lowest thrombocyte count [7, 9]: 6 1/10^3 of the platelet#/mm^3
Time to lowest count [7, 9]: 6 h
Ki [8, 10]: 0.39 nM
Ki [8, 11]: 0.0029 nM
SMILES: CNCCOC12CC3(C)CC(C)(CC(Cn4ncc(-c5ccc(N6CCc7cccc(C(=O)Nc8nc9ccccc9s8)c7C6)nc5C(=O)O)c4C)(C3)C1)C2 [Example 1.1]

EC50 [6]: 5.4 nM
Ki [8, 10]: 0.51 nM
Ki [8, 11]: 0.04 nM
SMILES: CNCCOCCOCCOC12CC3(C)CC(C)(CC(Cn4ncc(-c5ccc(N6CCc7cccc(C(=O)Nc8nc9ccccc9s8)c7C6)nc5C(=O)O)c4C)(C3)C1)C2 [Example 1.2, 6-[8-(1,3-benzothiazol-2-ylcarbamoyl)-3,4-dihydroisoquinolin-2(1H)-yl]-3-(1-({[(1r,3R,5S,7s)-3,5-dimethyl-7-(2-(2-[2-(methylamino)ethoxy]ethoxy}ethoxy)tricyclo[3.3.1.1^3,7]dec-1-yl]methyl)-5-methyl-1H-pyrazol-4-yl)pyridine-2-carboxylic acid]

EC50 [6]: 6.6 nM
Ki [8, 10]: 0.097 nM
Ki [8, 11]: < 0.001 nM
SMILES: Cc1c(-c2ccc(N3CCc4cccc(C(=O)Nc5nc6ccccc6s5)c4C3)nc2C(=O)O)cnn1CC12CC3(C)CC(C)(C1)CC(OCCN)(C3)C2 [Example 1.3, 3-(1-{[3-(2-aminoethoxy)-5,7-dimethyltricyclo[3.3.1.1^3,7]dec-1-yl]methyl}-5-methyl-1H-pyrazol-4-yl)-6-[8-(1,3-benzothiazol-2-ylcarbamoyl)-3,4-dihydroisoquinolin-2(1H)yl]pyridine-2-carboxylic acid]

EC50 [6]: 12.1 nM
Ki [8, 10]: 0.24 nM
Ki [8, 11]: 0.01 nM
SMILES: Cc1c(-c2ccc(N3CCc4cccc(C(=O)Nc5nc6ccccc6s5)c4C3)nc2C(=O)O)cnn1CC12CC3(C)CC(C)(C1)CC(OCCOCCN)(C3)C2 [Example 1.4, 3-[1-({3-[2-(2-aminoethoxy)ethoxy]-5,7-dimethyltricyclo[3.3.1.1^3,7]dec-1-yl}methyl)-5-methyl-1H-pyrazol-4-yl]-6-[8-(1,3-benzothiazol-2-ylcarbamoyl)-3,4-dihydroisoquinolin-2(1H)yl]pyridine-2-carboxylic acid]

EC50 [6]: 1.85 nM
Ki [8, 10]: 0.078 nM
Ki [8, 11]: < 0.001 nM
SMILES: COCCNCCOC12CC3(C)CC(C)(CC(Cn4ncc(-c5ccc(N6CCc7cccc(C(=O)Nc8nc9ccccc9s8)c7C6)nc5C(=O)O)c4C)(C3)C1)C2 [Example 1.5, 6-[8-(1,3-benzothiazol-2-ylcarbamoyl)-3,4-dihydroisoquinolin-2(1H)-yl]-3-(1-[(3-{2-[(2-methoxyethyl)amino]ethoxy}-5,7-dimethyltricyclo[3.3.1.1^3,7]dec-1-yl)methyl]-5-methyl-1H-pyrazol-4-yl)pyridine-2-carboxylic acid]

EC50 [6]: 47 nM
Ki [8, 10]: 0.62 nM
Ki [8, 11]: 0.019 nM
SMILES: Cc1c(-c2ccc(N3CCc4c(F)ccc(C(=O)Nc5nc6ccccc6s5)c4C3)nc2C(=O)O)cnn1CC12CC3(C)CC(C)(C1)CC(OCCN)(C3)C2 [Example 1.6, 3-(1-{[3-(2-aminoethoxy)-5,7-dimethyltricyclo[3.3.1.1^3,7]dec-1-yl]methyl}-5-methyl-1H-pyrazol-4-yl)-6-[8-(1,3-benzothiazol-2-ylcarbamoyl)-5-fluoro-3,4-dihydroisoquinolin-2(1H)-yl]pyridine-2-carboxylic acid]

EC50 [6]: 4 nM
Ki [8, 10]: 0.094 nM
Ki [8, 11]: 0.011 nM
SMILES: Cc1c(-c2ccc(N3CCc4cc(F)cc(C(=O)Nc5nc6ccccc6s5)c4C3)nc2C(=O)O)cnn1CC12CC3(C)CC(C)(C1)CC(OCCN)(C3)C2 [Example 1.7, 3-(1-{[3-(2-aminoethoxy)-5,7-dimethyltricyclo[3.3.1.1^3,7]dec-1-yl]methyl}-5-methyl-1H-pyrazol-4-yl)-6-[8-(1,3-benzothiazol-2-ylcarbamoyl)-6-fluoro-3,4-dihydroisoquinolin-2(1H)-yl]pyridine-2-carboxylic acid]

Ki [8, 10]: 17 nM
Ki [8, 11]: 0.1 nM
SMILES: Cc1c(-c2ccc(N3CCc4ccc(F)c(C(=O)Nc5nc6ccccc6s5)c4C3)nc2C(=O)O)cnn1CC12CC3(C)CC(C)(C1)CC(OCCN)(C3)C2 [Example 1.8, 3-(1-{[3-(2-aminoethoxy)-5,7-dimethyltricyclo[3.3.1.1^3′ ]dec-1-yl]methyl}-5-methyl-1H-pyrazol-4-yl)-6-[8-(1,3-benzothiazol-2-ylcarbamoyl)-7-fluoro-3,4-dihydroisoquinolin-2(1H)-yl]pyridine-2-carboxylic acid]

Lowest thrombocyte count ([7]; single dose 25 mg/kg, oral): 9 1/10^3 of the platelet#/mm^3
Time to lowest count ([7]; single dose 25 mg/kg, oral): 6 h
SMILES: Cc1c(-c2ccc(N3CCc4cccc(C(=O)Nc5nc6ccccc6s5)c4C3)nc2C(=O)O)cnn1CC12CC3CC(CC(C3)C1)C2 [Example A-1331852]
Response Frequency CR (%) ([4]; 25 mg/kg/day PO QDx14): 0%
Response Frequency OR (%) ([4]; 25 mg/kg/day PO QDx14): 0%
Response Frequency PR (%) ([4]; 25 mg/kg/day PO QDx14): 0%
Growth Inhibition TGD (%) [4, 12]: 78%
Growth Inhibition TGImax (%) [4, 12]: 57%
